Source: US20040132079A1, “Assays relating to Toll-like receptor activity” (3M Innovative Properties Company, priority 2002, published 2004)

Target: T1, human TLR6 (Homo sapiens, UniProt Q9Y2C9)
T1 construct: expressed in transfected cells; host or cells: Namalwa cells (ATCC CRL-1432), co-transfected with pIFN-α1-luc and pCI-TLR6, G418-selected
T1 sequence (Q9Y2C9 32-796): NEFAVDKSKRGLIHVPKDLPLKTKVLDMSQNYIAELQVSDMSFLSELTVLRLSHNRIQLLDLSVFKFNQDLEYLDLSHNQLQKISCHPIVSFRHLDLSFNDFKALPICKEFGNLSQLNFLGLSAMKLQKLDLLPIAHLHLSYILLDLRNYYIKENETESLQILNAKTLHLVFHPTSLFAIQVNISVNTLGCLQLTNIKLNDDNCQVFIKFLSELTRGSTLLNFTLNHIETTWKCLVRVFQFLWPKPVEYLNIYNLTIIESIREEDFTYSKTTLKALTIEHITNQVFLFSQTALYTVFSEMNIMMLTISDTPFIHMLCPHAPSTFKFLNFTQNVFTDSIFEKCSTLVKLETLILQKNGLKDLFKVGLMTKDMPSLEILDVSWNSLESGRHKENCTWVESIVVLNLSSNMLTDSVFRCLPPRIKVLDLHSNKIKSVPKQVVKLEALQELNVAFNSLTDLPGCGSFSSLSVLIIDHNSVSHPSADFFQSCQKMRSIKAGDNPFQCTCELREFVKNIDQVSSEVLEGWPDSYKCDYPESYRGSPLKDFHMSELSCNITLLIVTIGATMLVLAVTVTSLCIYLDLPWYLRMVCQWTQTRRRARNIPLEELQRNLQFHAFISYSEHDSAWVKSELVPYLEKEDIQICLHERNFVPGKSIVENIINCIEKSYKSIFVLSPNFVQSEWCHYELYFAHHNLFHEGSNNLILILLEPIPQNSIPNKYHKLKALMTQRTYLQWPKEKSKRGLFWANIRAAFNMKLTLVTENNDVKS
Experiment: Luciferase induction off of the IFN-α1 promoter in pIFN-α1-luc/pCI-TLR6 co-transfected Namalwa cells
Format: cell-based
Conditions: IRM compound 10 μM, 18 hours, compared to DMSO negative control, representative experiment
Text: The vector pIFN-α1-luc was constructed by inserting BglII sites at both ends of the human IFN-α1 promoter (SEQ ID NO:21). The BglII sites were inserted into the IFN-α1 promoter and the sequence was amplified using the primer pair of SEQ ID NO:22 and SEQ ID NO:23. The amplified IFN-α1 promoter was cloned into the pGL3-Enhancing vector (Promega Corp., Madison, Wis.) at the BglII site.
The vector pCI-TLR6 was constructed by inserting SEQ ID NO:11 (GenBank Accession No. NM 006068), which includes the human TLR6 coding sequence, into the pCI-neo mammalian expression vector (Promega Corp.) at the vector's NheI and MluI restriction sites.
Burkitt's Lymphoma lymphoblastoid Namalwa cells (ATCC Accession No. CRL-1432) were grown by incubation in culture medium overnight. Cells were harvested by centrifugation in a tabletop centrifuge (1200 RPM for 5 minutes), and then resuspended in phosphate buffered sucrose to a concentration of 1.3×10^7 cells per milliliter.
For each transfection, a 750 μL aliquot of the cell suspension was placed in an electroporation cuvette with 4 mm gaps. 10 μg of the pIFN-α1-luc vector and 10 μg of the pCI-TLR6 vector were added to the electroporation cuvette. The cell and vector mixtures were incubated at room temperature for 5 minutes. The cells were electroporated using a BioRad Gene Pulser (BioRad Laboratories, Hercules, Calif.) set to at 500 μF capacitance and […], then incubated at room temperature for 5 minutes.
The electroporated cells were suspended in 10 mLs of culture medium and incubated overnight. Dead cells and debris were removed after 24 hours using a MACS Dead Cell Removal kit (Miltenyi Biotec, Auburn, Calif.). Cells were resuspended in 10 mLs of culture medium and incubated for an additional 24 hours.
Transfected cells were selected by adding G418 (Promega Corp., Madison, Wis.) to a final concentration of 1 mg/mL and incubating the cells for seven days.
The selected transfected cells were counted and resuspended to a concentration of 1×10^6 cell per mL in culture medium. 100 μl aliquots of cells were placed in the wells of a white-walled, white-bottomed 96-well plate (Corning, Inc. Corning, N.Y.). 1.0 μL of an IRM compound from Table 1 (prepared at 1 mM in 100% DMSO) was added to some cell aliquots so that the final concentration of IRM compound was 10 μM. As a positive control, some cell aliquots were incubated with Sendai virus instead of IRM compound. As a negative control, some cell aliquots were incubated with DMSO without IRM compound. In all cases, the cells were incubated for 18 hours.
The plates were equilibrated to room temperature before 1 volume of reconstituted LucLight Plus (Packard Instruments, Meriden, Conn.) was added to each aliquot of cells. Each well of the plate was read on an LJL Analyst (LJL Biosystems, Inc., Sunnyvale, Calif.) set with a 5 minute dark adapt. The data are expressed as the fold increase in luciferase induction off of the IFN-α1 promoter in cell aliquots incubated with the indicated stimulant compared to the negative control in which the cell aliquots were incubated with only DMSO.

| Fold Increase in Luciferase Induction | Structure (SMILES) |
| --- | --- |
| 3.6 fold | CCOCc1nc2c(N)nc3c(c2n1CC(C)(C)O)CCCC3 [IRM1, 4-amino-2-ethoxymethyl-α,α-dimethyl-6,7,8,9-tetrahydro-1H-imidazo[4,5-c]quinoline-1-ethanol] |
| 2.7 fold | Cc1nc2c(N)nc3ccccc3c2n1CC(C)(C)O [IRM2, 4-amino-α,α,2-trimethyl-1H-imidazo[4,5-c]quinoline-1-ethanol] |
| 2.6 fold | CCCCc1nc2c(N)nc3ccccc3c2n1CCCCNS(C)(=O)=O [IRM3, N-[4-(4-amino-2-butyl-1H-imidazo[4,5-c]quinolin-1-yl)butyl]methanesulfonamide] |
| 4.0 fold | Nc1nc2ccccc2c2c1ncn2CCOCCCc1cccnc1 [IRM4, 1-{2-[3-(3-pyridyl)-propoxy]ethyl}-1H-imidazo[4,5-c]quinolin-4-amine] |
| 3.2 fold | CCCCc1nc2c(N)nc3cccnc3c2n1CC(C)C [IRM5, 2-butyl-1-(2-methylpropyl)-1H-imidazo[4,5-c][1,5]naphthyridin-4-amine] |
| 2.9 fold | CCCCc1nc2c(N)nc3c(c2n1CC(C)C)NCCC3 [IRM6, 2-butyl-6,7,8,9-tetrahydro-1-(2-methylpropyl)-1H-imidazo[4,5-c][1,5]naphthyridin-4-amine] |
| 3.2 fold | COCCc1nc2c(N)nc3ccccc3c2n1CCCCNC(=O)c1ccc(-n2cccc2)nc1 [IRM7, N^3-{4-[4-amino-2-(2-methoxyethyl)-1H-imidazo[4,5-c]quinolin-1-yl]butyl}-6-(1H-1-pyrrolyl)nicotinamide] |
| 2.3 fold | CCc1nc2c(N)nc3ccccc3c2n1CCCCCS(C)(=O)=O [IRM8, 2-ethyl-1-[5-(methylsulfonyl)-pentyl]-1H-imidazo[4,5-c]quinolin-4-amine] |
